Experimental data: PMC5390467, “Novel lead structures with both Plasmodium falciparum gametocytocidal and asexual blood stage activity identified from high throughput compound screening” (Malaria Journal, 2017)

Assays:
[1] = test system: P. falciparum NF54 gametocytes; assay: gametocyte viability assay (AlamarBlue); assay type: cell-based, Plasmodium falciparum; conditions: for IC50: P. falciparum NF54 stage III-V gametocytes, 72 h, AlamarBlue, mean ± SD, n = 3; for ratio of IC50s, lower IC50 in gametocyte viability assay than in asexual parasite growth assay: asexual versus gametocyte; for Asexual/Gametocyte: ratio of asexual IC50 to gametocyte IC50
Description: (§1) Asexual parasites of P. falciparum strain NF54 were cultured as described previously. Briefly, parasites were maintained in RPMI 1640 medium containing 10% positive human serum + erythrocytes (5% haematocrit), 2.5% sodium bicarbonate and 11 µg/mL gentamicin at 37 °C with 5% CO2, 5% O2 and 90% N2. Gametocyte cultures were set up at 0.1% parasitaemia and on days 9–10 treated with 50 mM N-acetylglucosamine (NAG) to block further asexual growth. Stage III–V gametocytes were isolated by Percoll density gradient centrifugation on day 12 and returned to culture for 24 h before being used in the assay. At the time of the assay over 73% of the gametocytes were stage IV or V (Additional file 1). HepG2 cells (ATCC, cat. no. 77400) were cultured in 175-cm^2 tissue culture flasks with 30 ml growth medium at 37 °C in a 5% CO2 and 5% O2 humidified atmosphere. Growth medium was made with Dulbecco’s Modified Eagle Medium with 10% fetal bovine serum (FBS). Growth medium was replaced every other day and cells were passaged at 75% confluence.
Compounds from the Sytravon library (a retired Pharma screening collection that contains a diversity of novel small molecules, with an emphasis on medicinal chemistry-tractable scaffolds) were obtained as powder samples and dissolved in DMSO as […] stock solutions. Compound screening experiments were performed as previously described. In the primary screen, two concentrations for each compound were tested. No technical and biological replicates were involved. In the follow-up confirmation studies, three biological replicates were tested for each compound in both parasite assays. The positive control was 46 µM of Torin 2 and negative control was DMSO. Briefly, 2.5 μL/well incomplete medium was dispensed into each well of 1536-well plates using the Multidrop Combi followed by 23 nL compound transferring using the NX-TR Pintool (WAKO Scientific Solutions, San Diego, CA). Then, 2.5 μL/well of gametocytes was dispensed with a seeding density of 20,000 cells/well using the Multidrop Combi. The assay plates were incubated for 72 h at 37 °C with 5% CO2. After addition of 5 μL/well of 2X AlamarBlue dye (Life Technologies, cat. no. DAL1100), the plates were incubated for 24 h at 37 °C with 5% CO2 and then were read in a fluorescence detection mode (Ex = 525 nm, Em = 598 nm) on a ViewLux plate reader (PerkinElmer).

[2] = test system: P. falciparum NF54 asexual parasites; assay: asexual parasite growth inhibition assay (SYBR Green); assay type: cell-based, Plasmodium falciparum; conditions: 72 h, mean ± SD, n = 3
Description: as §1
Drug activity on asexual stage parasites was tested using a SYBR Green assay as described previously. Briefly, 2.5 μL/well complete culture medium was dispensed into each well of 1536-well plates using the Multidrop Combi followed by 23 nL compound transferring using the NX-TR Pintool. Parasites were diluted to 0.5% parasitaemia in complete culture medium with 2% haematocrit and drugs diluted in DMSO (≤0.5%). The pre-diluted parasites were dispensed into a 1536-well plate (2.5 μL/well). After 72 h incubation under the standard culture conditions, 5 μL/well of lysis buffer containing SYBR Green I was added to the parasite culture and incubated for 30 min at room temperature. The fluorescence of each well was measured in a fluorescence detection mode (Ex = 490 nm, Em = 520 nm) using a ViewLux plate reader (PerkinElmer).

HepG2 cells = assay: HepG2 cytotoxicity assay (AlamarBlue); assay type: cell-based, human; conditions: for HepG2, IC50 (dash = less than 25% cytotoxicity) / IC50 / cytotoxicity at 46 µM: HepG2 cells, 72 h, AlamarBlue; for HepG2, IC50 (dash = less than 25% cytotoxicity) / cytotoxicity at 46 µM: up to 46 µM; for IC50 / maximum response, HepG2 cytotoxicity: titration 0.001 to 46 µM; for IC50: mean ± SD, n = 3; for cytotoxicity at 46 µM: Homo sapiens, read-out: HepG2, IC50 (dash = less than 25% cytotoxicity)
Description: as §1
Drug activity on HepG2 was tested using an AlamarBlue assay as previously described. Briefly, 5 μL/well of HepG2 cells were dispensed with a seeding density of 1000 cells/well using the Multidrop Combi. 23 nL compound was transferred using the NX-TR Pintool. After 72 h incubation under the standard culture condition, 5 μL/well of 2X AlamarBlue dye was added to the cells, the plates were incubated for 2 h at 37 °C with 5% CO2 and then were read in a fluorescence detection mode (Ex = 525 nm, Em = 598 nm) on a ViewLux plate reader.

Structure (SMILES)	IC50 [1]	ratio of IC50s, lower IC50 in gametocyte viability assay than in asexual parasite growth assay [1]	Asexual/Gametocyte [1]	IC50 [2]	HepG2, IC50 (dash = less than 25% cytotoxicity) (HepG2 cells)	IC50 (HepG2 cells)	maximum response, HepG2 cytotoxicity (HepG2 cells)	IC50 ([1]; Plasmodium falciparum)	IC50 ([2]; Plasmodium falciparum)	cytotoxicity at 46 µM (HepG2 cells)
CCN(CC)CCCNC(=O)CSc1c2c(nc3cc(Cl)ccc13)CCCC2 [NCGC00110901]	10.6 ± 1.32 µM	~ fourfold	3.41	36.1 ± 15.2 µM	– (Indicates compounds with less than 25% cytotoxicity at up to 46 µM)					
COc1ccc(CCN2CCC(CNC(=O)c3cnn(-c4ccccc4)c3C3CCN(C(=O)OC(C)(C)C)CC3)CC2)cc1 [NCGC00126987]	30.6 ± 1.95 µM		0.05	1.47 ± 0.04 µM		38.6 ± 0.42 µM	86.1%			
COc1ccc(NC(=O)c2ccc3c(c2)N(Cc2cccc(Cl)c2)C(=O)c2ccccc2[S+]3[O-])cc1Cl (stereo not drawn) [NCGC00140326]	~60 µM		0.23	13.8 ± 0.82 µM	– (Indicates compounds with less than 25% cytotoxicity at up to 46 µM)					
Cc1cc(Nc2ccc(F)cc2)nc(-n2nc(C)cc2C)n1 [NCGC00134124]		~ fourfold	3.85					1.55 ± 0.11 µM	5.96 ± 0.7 µM	< 25%
Cc1ccc2nc(-c3ccccn3)c(Nc3ccc(F)cc3)n2c1 [NCGC00106091]	2.45 ± 0.42 µM		1.84	4.51 ± 1.29 µM	– (Indicates compounds with less than 25% cytotoxicity at up to 46 µM)					
CCCCc1ccc(Nc2cc(C)nc(-n3nc(C)cc3C)n2)cc1 [NCGC00134132]			1.87					1.29 ± 0.32 µM	2.41 ± 0.32 µM	< 25%
Cc1ccc(Nc2cc(C)nc(-n3nc(C)cc3C)n2)cc1 [NCGC00134154]			2.38					1.19 ± 0.34 µM	2.83 ± 0.31 µM	< 25%
Cc1ccc2nc(-c3ccccn3)c(Nc3ccccc3C)n2c1 [NCGC00106087]	3.34 ± 0.51 µM		2.24	7.49 ± 4.11 µM	– (Indicates compounds with less than 25% cytotoxicity at up to 46 µM)					
CC(C)c1ccc(Nc2c(-c3ccccn3)nc3ccccn23)cc1 [NCGC00104490]			1.72					1.29 ± 0.29 µM	2.22 ± 0.35 µM	< 25%
COc1ccc(Nc2cc(C)nc(-n3nc(C)cc3C)n2)cc1Cl [NCGC00134126]		~ fourfold	4.02					1.19 ± 0.05 µM	4.78 ± 0.43 µM	< 25%
CC(C)c1ccccc1Oc1c(C(F)(F)F)oc2c(CN3CCN(C)CC3)c(O)ccc2c1=O [NCGC00100597]	6.04 ± 1.9 µM		0.10	0.63 ± 0.05 µM	– (Indicates compounds with less than 25% cytotoxicity at up to 46 µM)					
Cc1cc(Nc2ccc(Cl)cc2C)nc(-n2nc(C)cc2C)n1 [NCGC00134136]	2.57 ± 0.48 µM		1.60	4.12 ± 0.1 µM	– (Indicates compounds with less than 25% cytotoxicity at up to 46 µM)					
Cc1ccn2c(Nc3ccccc3C)c(-c3ccccn3)nc2c1 [NCGC00106119]	2.82 ± 0.3 µM		1.50	4.22 ± 0.29 µM	– (Indicates compounds with less than 25% cytotoxicity at up to 46 µM)					
CC(C)(C)OC(=O)N1CCC(c2c(C(=O)NCCN3CCC(Cc4ccccc4)CC3)cnn2-c2cccc(Cl)c2)CC1 [NCGC00126892]	31.3 ± 12.8 µM		0.24	7.49 ± 0.86 µM		34.4 µM	93.0%			
COc1ccccc1Cn1c(CNS(=O)(=O)c2cccc([N+](=O)[O-])c2)nc2cccnc21 [NCGC00134795]	4.25 ± 0.64 µM		0.23	0.96 ± 0.3 µM	– (Indicates compounds with less than 25% cytotoxicity at up to 46 µM)					
Cc1ccn2c(Nc3ccc(F)cc3)c(-c3ccccn3)nc2c1 [NCGC00106780]			1.94					1.82 ± 0.11 µM	3.53 ± 1.21 µM	< 25%
CN1CCN(c2nc3c(S(=O)(=O)c4ccc(Br)cc4)nnn3c3ccsc23)CC1 [NCGC00123034]	35.2 ± 4.52 µM		0.92	32.1 ± 12.6 µM	– (Indicates compounds with less than 25% cytotoxicity at up to 46 µM)					
Cc1cc(Nc2cc(F)ccc2C)nc(-n2nc(C)cc2C)n1 [NCGC00134156]	2.1 ± 0.73 µM		1.68	3.53 ± 0.27 µM	– (Indicates compounds with less than 25% cytotoxicity at up to 46 µM)					
COc1ccc(Nc2c(-c3ccccn3)nc3ccc(Cl)cn23)cc1 [NCGC00104528]	8.91 ± 0.2 µM		1.56	13.9 ± 0.93 µM	– (Indicates compounds with less than 25% cytotoxicity at up to 46 µM)					
Cc1ccc(C)c(Oc2c(C(F)(F)F)oc3c(CN4CCN(C)CC4)c(O)ccc3c2=O)c1 [NCGC00141020]	4.86 ± 0.03 µM		0.22	1.07 ± 0.37 µM	– (Indicates compounds with less than 25% cytotoxicity at up to 46 µM)					
Cc1cccc(Nc2cc(C)nc(-n3nc(C)cc3C)n2)c1 [NCGC00134130]			2.30					1.42 ± 0.24 µM	3.26 ± 0.5 µM	< 25%
O=C(NCc1ccc(Cl)cc1)C1CCCN(C(=O)c2cnn(-c3ccc(F)cc3)c2-n2cccc2)C1 (stereo not drawn) [NCGC00124960]	~60 µM		0.59	35.6 ± 1.77 µM	– (Indicates compounds with less than 25% cytotoxicity at up to 46 µM)					
